Measurements: US12285501B2, “Compound targeting norepinephrine transporter” (priority 2019, dated 2025)

How the values were obtained:
[1] = target: T1, NET (Homo sapiens, UniProt P23975); experiment: Competitive inhibition of 131I-MIBG uptake in SK-N-SH cells expressing NET; format: cell-based; settings: for IC50: non-radioactive compounds, percent of control MIBG uptake
T1 construct: SK-N-SH cells expressing NET; host or cells: SK-N-SH
Procedure: (§1) SK-N-SH cells expressing NET were cultivated according to the instructions from the supplier (Sigma-Aldrich Chemie GmbH, Munich, Germany). The cells were transferred to a 12 well plate and incubated in 1 mL EMEM while reaching 2×10^5 cells/well density the day for testing. The medium was removed, and the cells were washed with 1 mL EMEM. A solution of ^18F-AF78 (3.7 kBq) in EMEM (700 μL) was added to each well with or without inhibitors (NE, MHPG, cold AF78 each with a final concentration 100 nM, 1 μM, 10 μM and 100 μM, respectively; Desipramine 10 μM). The plate was incubated for 60 min at 37° C. The cells were washed with ice-cold PBS buffer (1 mL×2) in order to remove unbound tracer. NaOH solution (0.1 N, 500 μL) was added to each well followed by the collection of cell pellet and the measurement in γ-counter (FH412, Frieseke & Höpfner, Erlangen, Germany) using differential energy windows (±20%) for ^18F and ^131I.
[drawing 27] were synthesized. The compounds were tested in SK-N-SH cells expressing NET in order to evaluate their competitive binding affinity against ^131I-MIBG. […] Results are expressed as percent of control MIBG uptake. […] (IC50 of AF78 vs. MHPG p value<0.01)
NE and cold MIBG were used as references. As a result, cold reference 2 (AF78) could inhibit the cell uptake of ^131I-MIBG in a concentration-dependent manner. In contrast, cold reference 1 was not able to block the uptake of ^131I-MIBG even at the highest concentration tested. Inhibition was only 40% at 100 μM. […] The introduction of long alkyl chain at 3-position on the benzene ring seems not to be tolerated, whereas introduction at the 4-position seems to be well tolerated.

[2] = target: T1, NET; experiment: Competitive inhibition of 18F-AF78 uptake in SK-N-SH cells; format: cell-based; settings: percentage of control AF78 uptake
Procedure: as §1
To further confirm the tracer's binding affinity, ^18F-labeled AF78 was used in competitive inhibition assay, to which different concentrations of NE, MHPG, and cold reference 2 (AF78) were added. […] Results are expressed as percentage of control AF78 uptake. […] (IC50 of MHPG vs. AF78, p value<0.05). […]

[3] = time frame of 50-60 min imaging; Raffel et al., J. Nucl. Med. 2017; cited from earlier work
[4] = target: T2, NET (Rattus norvegicus, UniProt Q63380); experiment: Cardiac PET imaging in healthy rats with and without NET blockade; format: in vivo
T2 construct: tissue Japan SLC, Inc., Japan (animals); host or cells: heart (myocardium) of healthy male Wistar rats, in vivo
Excerpt: Rats were maintained anaesthetized during the whole experiment by 2% isoflurane. All scans were obtained using a dedicated small-animal PET system (microPET FOCUS 120, SIEMENS, Germany). The PET imaging protocol was designed to assess the systemic and myocardial tracer distribution of ^18F-AF78. Shortly before the injection of 10-20 MBq of ^18F-AF78 via the tail vein, a dynamic PET scan was initiated. In order to evaluate the cardiac uptake mechanism of the tracer, rats were pretreated with phenoxybenzamine (50 mg/kg intravenously, Sigma-Aldrich, Tokyo, Japan). Ten minutes after the pretreatment, 10-20 MBq of ^18F-AF78 was administered via the tail vein. A 10 min dynamic PET session was started shortly before the tracer injection. PET image was acquired in list-mode format. The data were sorted into 3-dimensional sonograms, which were then rebind with a Fourier algorithm to reconstruct dynamic images using a 2-dimensional ordered-subset expectation maximization (OSEM) algorithm. All images were corrected for ^18F decay, random, and dead time; correction for attenuation was not performed (Higuchi JNM 2013). The obtained PET images were analyzed with the public domain tool AMIDE imaging software (A Medical Imaging Data Examiner, version 1.01). […]

[5] = Biodistribution study (SUV) in monkey; format: in vivo
Procedure: A further biodistribution study with ^18F-AF78 in monkey has been conducted. […] The liver uptake is decreasing and is lower than cardiac uptake 35 min after tracer administration.

[6] = tested on: NET; experiment: Dynamic PET time-activity curves in Cynomolgus monkey with and without DMI pretreatment; format: in vivo
Procedure: For control, Cynomolgus monkey (male, 5.3 kg) was maintained anaesthetized during the imaging study using 3.3% seboflurane. Shortly before receiving an intravenous injection of the tracer (44 MBq), a 120 min dynamic PET session was started. In addition, to investigate the inhibition of cardiac neuronal uptake-1, DMI (1 mg/kg, iv.) was injected to Cynomolgus monkey (female, 5.6 kg) 10 min before the tracer (18.2 MBq) injection and PET assessment started. PET was conducted using a PCA-2000A positron scanner (Toshiba Medical Systems Corporation, Otawara, Japan). Sinograms were collected with the following pattern: 10 sec×12, 30 sec×6, 300 sec×23. The tissue uptake was determined as arbitrary unit (A.U.), from which a time-activity curves of different organs were generated.
A tissue bio-distribution consistent with that observed in rat could be observed with clear long term and stable cardiac uptake during the total 120 min scan whereas uptake in adjacent liver and lungs was low. Representative time activity curves derived from ^18F-AF78 dynamic images in control and sympathetic nerve blocked monkey were generated from the scanning data. […] In the control, activity in the liver reached a peak a little while after the tracer injection, then decreased slowly to blood level after 60 min.

[7] = Static PET images of cardiac uptake in several species; format: in vivo; settings: healthy rats, rabbits, pigs and monkeys
[8] = target: T2, NET; experiment: Ex vivo autoradiography of left ventricular short axis slices; format: in vivo
Procedure: Standard protocols and data analysis methods for non-invasive PET imaging of small animals have been established in the working group of the inventors (Rischpler C. et al., Eur J Nucl Med Mol Imaging. 2013; 40(7): 1077-83). Healthy male Wistar rats (Japan SLC, Inc., Japan) each weighing 200-250 g were used. The rats are anaesthetized with 2% isoflurane. 10-20 MBq of the tracer was administered via tail vein injection. Ten minutes after the tracer administration, the animals were immediately euthanized. Hearts, livers and blood were obtained for ex vivo analysis with autoradiography (Typhoon FLA 7000) and tissue counts with γ-counter (1480 WIZARD™ 3″). Following weight and decay correction of tissue counts, the heart to blood (H/B) and heart to liver (H/L) count ratio were calculated, respectively. For autoradiography, the rats were first injected via tail vein either with or without (control) NET blocker phenoxynezamine 50 mg/kg after anaesthesia. After 10 min, the tracer (10-20 MBq) was administered. The hearts were harvested 10 min later, frozen, and cut into 20 μm short axis slices using a cryostat (Cryotome FSE, Thermo Fisher Scientific). […]

[9] = tested on: NET; experiment: Kinetic study in monkeys' hearts (DMI blocking, DMI chase, tyramine chase); format: in vivo, monkey
Excerpt: A kinetic study has been performed with ^18F-AF78 in monkeys' hearts. The results confirmed the specific uptake of ^18F-AF78 via NET and stable vesicular storage mechanism in the sympathetic nerve terminals. […] Furthermore, a continuous tyramine (TYR) chase was applied after tracer administration. Tyramine is known as agent causing a catecholamine release thus enhancing tracer washout. […] Decrease was statistically significant (p<0.005) compared to control group (FIG. 18, lower panel).

[10] = target: T2, NET; experiment: Ex vivo tissue counting study (heart/tissue distribution ratio) with and without NET blockade; format: in vivo; settings: rats
Procedure: Standard protocols and data analysis methods for non-invasive PET imaging of small animals have been established in the working group of the inventors (Rischpler C. et al., Eur J Nucl Med Mol Imaging. 2013; 40(7): 1077-83). Healthy male Wistar rats (Japan SLC, Inc., Japan) each weighing 200-250 g were used. The rats are anaesthetized with 2% isoflurane. 10-20 MBq of the tracer was administered via tail vein injection. Ten minutes after the tracer administration, the animals were immediately euthanized. Hearts, livers and blood were obtained for ex vivo analysis with autoradiography (Typhoon FLA 7000) and tissue counts with γ-counter (1480 WIZARD™ 3″). Following weight and decay correction of tissue counts, the heart to blood (H/B) and heart to liver (H/L) count ratio were calculated, respectively. For autoradiography, the rats were first injected via tail vein either with or without (control) NET blocker phenoxynezamine 50 mg/kg after anaesthesia. After 10 min, the tracer (10-20 MBq) was administered. The hearts were harvested 10 min later, frozen, and cut into 20 μm short axis slices using a cryostat (Cryotome FSE, Thermo Fisher Scientific). To obtain the distribution of the tracer, autoradiography plates (Fuji SR-type image plate, Fujifilm Corporation, Tokyo, Japan) were exposed to the short axis slices immediately for 18 h and thereafter imaged using a digital autoradiographic system (Typhoon FLA 7000).
The columns are the mean value of 2 rats. Data were determined 10 min post injection. Y-axis represents the heart/tissue distribution ratio. […] In comparison, according to Raffel, D. et al., J. Nucl. Med. 2017, 58 (Suppl 1): 96 MHPG and PHPG show tissue concentration ratios at a time frame of 50-60 min imaging as follows: MHPG with H/B 3.6 and H/L 2.3; PHPG with 5.4 and 1.1, respectively.

[11] = target: T1, NET; experiment: Tracer cell uptake in SK-N-SH cells with and without NET inhibitor desipramine (DMI); format: cell-based; settings: desipramine 10 μM, 60 min at 37° C.
Procedure: as §1
After successful radiolabeling, ^18F-AF78 was also tested in SK-N-SH cells in order to check cell uptake. Antidepressant desipramine (DMI) was used as the inhibitor of NET. The addition of DMI blocks cell uptake of tracers specifically transported by NET.

[12] = 10 min post injection, control, mean of 2 rats
[13] = PhB 50 mg/kg 10 min before tracer, 10 min post injection

T2 sequence (Q63380 1-617): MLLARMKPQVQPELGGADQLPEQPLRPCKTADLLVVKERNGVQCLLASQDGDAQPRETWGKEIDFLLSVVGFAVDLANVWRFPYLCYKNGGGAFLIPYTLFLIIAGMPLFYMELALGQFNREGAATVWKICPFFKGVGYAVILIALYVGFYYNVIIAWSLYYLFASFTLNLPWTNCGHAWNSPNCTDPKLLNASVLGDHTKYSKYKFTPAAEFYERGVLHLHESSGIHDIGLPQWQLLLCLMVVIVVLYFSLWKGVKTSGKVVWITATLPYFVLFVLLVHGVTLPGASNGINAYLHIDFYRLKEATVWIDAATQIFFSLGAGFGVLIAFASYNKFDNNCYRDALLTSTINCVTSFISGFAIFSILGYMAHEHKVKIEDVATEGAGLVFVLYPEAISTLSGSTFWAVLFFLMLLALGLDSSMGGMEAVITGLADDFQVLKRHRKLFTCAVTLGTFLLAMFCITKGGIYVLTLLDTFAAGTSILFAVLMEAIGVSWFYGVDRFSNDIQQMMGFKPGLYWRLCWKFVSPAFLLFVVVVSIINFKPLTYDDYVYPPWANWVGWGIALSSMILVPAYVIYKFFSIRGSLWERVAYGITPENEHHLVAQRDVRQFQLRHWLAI
T1 sequence (P23975 whole entry): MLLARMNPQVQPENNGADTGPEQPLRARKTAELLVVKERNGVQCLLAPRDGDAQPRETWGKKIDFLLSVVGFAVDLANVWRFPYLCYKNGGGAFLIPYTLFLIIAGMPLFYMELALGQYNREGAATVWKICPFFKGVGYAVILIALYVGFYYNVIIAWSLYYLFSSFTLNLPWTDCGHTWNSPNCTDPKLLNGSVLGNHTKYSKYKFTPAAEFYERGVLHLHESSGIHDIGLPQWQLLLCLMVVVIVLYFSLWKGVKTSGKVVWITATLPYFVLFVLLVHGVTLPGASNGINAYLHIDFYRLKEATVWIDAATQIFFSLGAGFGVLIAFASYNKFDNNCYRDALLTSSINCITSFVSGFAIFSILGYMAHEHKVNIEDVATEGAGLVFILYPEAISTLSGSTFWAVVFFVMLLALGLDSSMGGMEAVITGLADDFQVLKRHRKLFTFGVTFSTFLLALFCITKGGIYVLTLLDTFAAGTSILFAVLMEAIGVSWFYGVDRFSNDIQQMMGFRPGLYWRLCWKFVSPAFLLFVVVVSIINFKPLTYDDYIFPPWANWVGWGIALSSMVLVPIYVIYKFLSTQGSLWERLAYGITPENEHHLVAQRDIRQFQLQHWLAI

N=C(N)NCCc1ccc(OCCCF)c(F)c1 [AF78]
IC50 [1]: 2570 ± 1370 nM | IC50 [2]: 2680 ± 830 nM

N=C(N)NCCc1ccc(O)c([18F])c1 [PHPG, ^18F-3-fluoro-4-hydroxyphenethylguanidine]
H/B tissue concentration ratio [3]: 5.4 | H/L tissue concentration ratio [3]: 1.1

NC(N)=NCCc1ccc(OCCC[18F])c(F)c1 [^18F-AF78]
Myocardial tracer uptake after NET blockade, static PET images ([4]; PhB 50 mg/kg iv 10 min before tracer): significantly decreased the myocardial tracer uptake | Myocardial tracer uptake, static PET images ([4]; no pretreatment): homogeneous and clear tracer uptake throughout the left ventricular wall | Biodistribution (SUV) result [5]: stable cardiac uptake along with fast blood pool washout and relative fast liver uptake washout | Time after tracer administration at which liver uptake is lower than cardiac uptake [5]: 35 min | Time after which liver activity decreased to blood level ([6]; control monkey): 60 min | Cardiac uptake over scan time ([6]; control monkey, 120 min dynamic PET): maintained activity throughout the entire 120 min scan time | Liver uptake after DMI pretreatment ([6]; monkey, DMI 1 mg/kg iv): not affected by pretreatment with DMI | Heart uptake after DMI pretreatment ([6]; monkey, DMI 1 mg/kg iv 10 min before tracer): markedly reduced the heart uptake level | Cardiac uptake in static PET images across species [7]: works in all of these species | Tracer distribution in myocardium (autoradiography) ([8]; rat LVSA slices, control): homogeneous tracer uptake throughout the left ventricular walls | Tracer distribution after PhB pretreatment (autoradiography) ([8]; rat, PhB 50 mg/kg i.v. 10 min before tracer): could be inhibited by a pretreatment with phenoxybenzamine | Cardiac tracer uptake with DMI chase vs control ([9]; DMI injected 10 min after tracer): no difference can be seen compared to control group | Cardiac tracer uptake with DMI blocking vs control ([9]; DMI injected 10 min before tracer): specifically blocked the tracer uptake with significant difference | Cardiac tracer uptake with tyramine chase vs control ([9]; continuous tyramine chase after tracer): decreased considerable | Heart-to-Blood (H/B) ratio [10, 12]: 12.54 | Heart-to-Liver (H/L) ratio [10, 12]: 6.14 | Decline in the H/B ratio by PhB ([10]; PhB 50 mg/kg): approximately 6 fold | Decline in the H/L ratio by PhB ([10]; PhB 50 mg/kg): ~5 fold | Heart-to-Blood (H/B) ratio after NET blockade [10, 13]: 2.41 | Heart-to-Liver (H/L) ratio after NET blockade [10, 13]: 1.30 | Tracer uptake inhibited by the addition of DMI [11]: 94%

N=C(N)NCc1cccc([131I])c1 [^131I-MIBG, ^123/131I-meta-iodobenzylguanidine, reference compound]
Tracer uptake inhibited by the addition of DMI [11]: 87%

N=C(N)NCCc1ccc(F)c(OCCCF)c1 [cold reference 1]
inhibition at 100 µM ([1]; at 100 μM (highest concentration tested)): 40%

^18F-4-fluoro-3-hydroxyphenethylguanidine [MHPG]
IC50 [1]: 6800 ± 730 nM | IC50 [2]: 850 ± 630 nM | H/B tissue concentration ratio [3]: 3.6 | H/L tissue concentration ratio [3]: 2.3
